# According to PubChem BioAssay (NCI):
#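 Test compounds were applied to cells in 96-well plates for 48 hours at 5 doses. TGI denotes the concentration required for complete inhibition of growth.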
# Tests used:
# Test in all cases: NCI tumour cell line growth inhibition, 48 h
# [1] = test system: HOP-62 NSCLC
# [2] = test system: A498 renal
# [3] = test system: SF-268 CNS
# [4] = test system: OVCAR-3 ovarian
# [5] = test system: A549 NSCLC
# [6] = test system: SW-620 colon
# [7] = test system: UACC-257 melanoma
# [8] = test system: OVCAR-5 ovarian
# [9] = test system: SK-MEL-5 melanoma
# [10] = test system: SF-295 CNS
# [11] = test system: NCI-H226 lung
# [12] = test system: SNB-19 CNS
# [13] = test system: HOP-92 NSCLC
# [14] = test system: DLD-1 colon
# [15] = test system: P388/ADR leukemia
# [16] = test system: SK-MEL-2 melanoma
# [17] = test system: HCC-2998 colon
# [18] = test system: SK-OV-3 ovarian
# [19] = test system: M19-MEL melanoma
# [20] = test system: SN12K1 renal
# [21] = test system: MOLT-4 leukemia
# [22] = test system: UACC-62 melanoma
# [23] = test system: OVCAR-8 ovarian
# [24] = test system: RXF 393 renal
# [25] = test system: MALME-3M melanoma
# [26] = test system: OVCAR-4 ovarian
# [27] = test system: SF-539 CNS
# [28] = test system: K-562 leukemia
# [29] = test system: SK-MEL-28 melanoma
# [30] = test system: U251 CNS
# [31] = test system: EKVX NSCLC
# [32] = test system: NCI/ADR-RES ovarian
# [33] = test system: RPMI-8226 leukemia
# [34] = test system: SNB-78 CNS
# [35] = test system: NCI-H23 lung
# [36] = test system: NCI-H460 lung
# [37] = test system: CAKI-1 renal
# [38] = test system: HT29 colon
# [39] = test system: COLO 205 colon
# [40] = test system: LOX IMVI melanoma
# [41] = test system: HCT-15 colon
# [42] = test system: IGROV1 ovarian
# [43] = test system: SN12C renal
# [44] = test system: UO-31 renal
# [45] = test system: KM20L2 colon
# [46] = test system: SNB-75 CNS
# [47] = test system: CCRF-CEM leukemia
# [48] = test system: MCF7 breast
# [49] = test system: P388 leukemia
# [50] = test system: HCT-116 colon
# [51] = test system: HL-60(TB) leukemia
# [52] = test system: KM12 colon
# [53] = test system: DMS 273 small cell lung
# [54] = test system: XF 498 CNS
# [55] = test system: HOP-18 NSCLC
# [56] = test system: DMS 114 small cell lung
# [57] = test system: NCI-H522 lung
smiles,measurement,setting,value
COc1ccc(OC)c(C#N)c1C#N (tested in a mixture with another compound),TGI,[1],> 100 µM
same,TGI,[2],> 100 µM
same,TGI,[3],> 100 µM
same,TGI,[4],> 100 µM
same,TGI,[5],> 100 µM
same,TGI,[6],> 100 µM
same,TGI,[7],> 100 µM
same,TGI,[8],> 100 µM
same,TGI,[9],> 100 µM
same,TGI,[10],> 100 µM
same,TGI,[11],> 100 µM
same,TGI,[12],> 100 µM
same,TGI,[13],> 100 µM
same,TGI,[14],> 100 µM
same,TGI,[15],> 100 µM
same,TGI,[16],> 100 µM
same,TGI,[17],> 100 µM
same,TGI,[18],> 100 µM
same,TGI,[19],> 100 µM
same,TGI,[20],> 100 µM
same,TGI,[21],> 100 µM
same,TGI,[22],> 100 µM
same,TGI,[23],> 100 µM
same,TGI,[24],> 100 µM
same,TGI,[25],> 100 µM
same,TGI,[26],> 100 µM
same,TGI,[27],> 100 µM
same,TGI,[28],> 100 µM
same,TGI,[29],> 100 µM
same,TGI,[30],> 100 µM
same,TGI,[31],> 88 µM
same,TGI,[32],> 100 µM
same,TGI,[33],> 100 µM
same,TGI,[34],> 100 µM
same,TGI,[35],> 100 µM
same,TGI,[36],> 100 µM
same,TGI,[37],> 100 µM
same,TGI,[38],> 100 µM
same,TGI,[39],> 100 µM
same,TGI,[40],> 100 µM
same,TGI,[41],> 100 µM
same,TGI,[42],> 100 µM
same,TGI,[43],> 100 µM
same,TGI,[44],> 100 µM
same,TGI,[45],> 100 µM
same,TGI,[46],> 100 µM
same,TGI,[47],> 100 µM
same,TGI,[48],> 100 µM
same,TGI,[49],> 100 µM
same,TGI,[50],> 100 µM
same,TGI,[51],> 100 µM
same,TGI,[52],> 100 µM
same,TGI,[53],> 100 µM
same,TGI,[54],> 100 µM
O=C(NC(Cc1ccc(I)cc1)C(=O)O)c1cccc(Br)c1 (centres undefined),TGI,[1],> 100 µM
same,TGI,[2],> 100 µM
same,TGI,[3],> 100 µM
same,TGI,[4],> 100 µM
same,TGI,[5],> 100 µM
same,TGI,[6],> 100 µM
same,TGI,[7],> 100 µM
same,TGI,[8],> 100 µM
same,TGI,[9],> 100 µM
same,TGI,[10],> 100 µM
same,TGI,[11],> 100 µM
same,TGI,[12],> 100 µM
same,TGI,[13],> 100 µM
same,TGI,[14],> 100 µM
same,TGI,[15],> 100 µM
same,TGI,[16],> 100 µM
same,TGI,[17],> 93.1 µM
same,TGI,[18],> 100 µM
same,TGI,[19],> 100 µM
same,TGI,[20],> 100 µM
same,TGI,[21],> 100 µM
same,TGI,[22],> 100 µM
same,TGI,[23],> 100 µM
same,TGI,[25],> 100 µM
same,TGI,[26],> 100 µM
same,TGI,[27],> 100 µM
same,TGI,[28],> 100 µM
same,TGI,[29],> 100 µM
same,TGI,[30],> 100 µM
same,TGI,[31],> 100 µM
same,TGI,[32],> 100 µM
same,TGI,[33],> 100 µM
same,TGI,[34],> 100 µM
same,TGI,[55],> 100 µM
same,TGI,[35],> 100 µM
same,TGI,[36],> 100 µM
same,TGI,[37],> 100 µM
same,TGI,[38],> 100 µM
same,TGI,[39],> 100 µM
same,TGI,[40],> 100 µM
same,TGI,[41],> 100 µM
same,TGI,[56],> 100 µM
same,TGI,[42],> 100 µM
same,TGI,[43],> 100 µM
same,TGI,[44],> 100 µM
same,TGI,[57],> 100 µM
same,TGI,[45],> 100 µM
same,TGI,[46],> 100 µM
same,TGI,[47],> 100 µM
same,TGI,[48],> 100 µM
same,TGI,[49],> 100 µM
same,TGI,[50],> 100 µM
same,TGI,[51],> 100 µM
same,TGI,[52],> 100 µM
same,TGI,[53],> 100 µM
